Results on 19 molecules are retold here after BindingDB's records for doi:10.7270/Q2V986KM (Burnham Center For Chemical Genomics, 2011).

This assay deals with T1, Carboxy-terminal domain RNA polymerase II polypeptide A small phosphatase 1 (Homo sapiens, UniProt Q9GZU7).
T1 sequence (Q9GZU7 whole entry): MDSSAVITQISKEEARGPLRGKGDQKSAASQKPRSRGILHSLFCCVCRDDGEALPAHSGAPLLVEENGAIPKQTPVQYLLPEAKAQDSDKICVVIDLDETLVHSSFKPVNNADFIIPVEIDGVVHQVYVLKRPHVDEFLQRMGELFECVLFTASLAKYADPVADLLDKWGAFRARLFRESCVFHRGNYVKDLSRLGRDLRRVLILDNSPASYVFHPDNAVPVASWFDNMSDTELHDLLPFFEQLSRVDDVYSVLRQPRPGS
The experiment in a line: Ultra-high-throughput screening actives, CTDSP1 enzyme inhibition, concentration-response testing, biochemical, absorbance detection (AID 540297).

On to `CC1=CC(=NNC(=O)c2ccccc2O)c2ccccc2C1=O` [MLS000685531], for which it took 5.15 µM to reach half-maximal inhibition (IC50).

Consider `O=[N+]([O-])c1cccc(-c2csc(N=NCc3cccc(O)c3)n2)c1` [3-[[[4-(3-nitrophenyl)-1,3-thiazol-2-yl]hydrazinylidene]methyl]phenol], for which the 50% inhibitory concentration (IC50) worked out at 10.8 µM.

In turn, `Cc1ccc2c(c1)=C(NNC(=O)c1ccc(NS(=O)(=O)c3cccs3)cc1)C(=O)N=2` [N-[4-[[(5-methyl-2-oxoindol-3-yl)amino]carbamoyl]phenyl]thiophene-2-sulfonamide] displayed an IC50 of 11.5 µM.

`N#CC1=c2sc(=Cc3ccco3)c(=O)n2C(=N)C(C#N)C1c1ccco1` (centres undefined) [5-amino-7-(furan-2-yl)-2-(furan-2-ylmethylidene)-3-oxo-7H-[1,3]thiazolo[3,2-a]pyridine-6,8-dicarbonitrile] displayed an IC50 of 3.44 µM.

As to `CON=C(C(=O)N[C@@H]1C(=O)N2C(C(=O)O)=C(COC(N)=O)CS[C@H]12)c1ccco1`, the IC50 came to 2.09 µM.

Molecule `Cc1ccc(-n2[nH]c(C)c(CN=Nc3ccc([N+](=O)[O-])cc3[N+](=O)[O-])c2=O)cc1C` [(4E)-2-(3,4-dimethylphenyl)-4-[[(2,4-dinitrophenyl)hydrazo]methylidene]-5-methyl-3-pyrazolone] returned an IC50 of 3.32 µM.

Turning to `O=C1Nc2ccc([N+](=O)[O-])cc2/C1=N/NC(=O)c1ccccc1Cl` [2-chloro-N'-(5-nitro-2-oxoindol-3-yl)benzohydrazide], it took 6.44 µM to reach half-maximal inhibition (IC50).

The molecule `O=C(N/N=C/C1C=C(Cl)C=C([N+](=O)[O-])C1=O)c1cc(-c2ccccn2)nc2ccccc12` (centres undefined) [MLS000773704] showed an IC50 of 1.85 µM.

Consider `COc1cccc(N/C(C)=[N+](\C)CCNS(=O)(=O)c2ccc(Cl)cc2)c1` [SMR000672481], for which the IC50 stood at 3.46 µM.

Take `Cc1cccc(C(=O)/N=c2\c(C#N)cc3c(=O)n4cccc(C)c4nc3n2Cc2ccco2)c1` [N-[3-cyano-1-(furan-2-ylmethyl)-10-methyl-5-oxodipyrido[3,4-c:1',2'-f]pyrimidin-2-ylidene]-3-methylbenzamide]: 5.58 µM corresponded to half-maximal inhibition (IC50).

With `O=NCc1cc(Br)ccc1OCC(=O)O` [2-[4-bromanyl-2-(hydroxyiminomethyl)phenoxy]ethanoic acid], the 50% inhibitory concentration (IC50) was found to be 8.03 µM.

`O=C(NN=C/C=C/c1ccccc1)c1cc2c(ccc3ccccc32)o1` [N-[[(E)-3-phenylprop-2-enylidene]amino]-2-benzo[e]benzofurancarboxamide] displayed an IC50 of 1.72 µM.

The molecule `C[N+]1=C(CC=Nc2ccccc2Cl)C(C)(C)c2ccccc21` [SMR000173746] showed an IC50 of 5.96 µM.

In turn, `O=C(O)CNC(=O)Cc1sc(NNc2nc(O)cs2)nc1O` came in with an IC50 of 5.27 µM.

As to `CC(N=Nc1ccc(Cl)c(C(=O)O)c1)c1ccc[nH]1` (centres undefined) [2-chloro-5-[2-[(1Z)-1-pyrrol-2-ylideneethyl]hydrazinyl]benzoic acid], it took 4.28 µM to reach half-maximal inhibition (IC50).

Molecule `CCOc1cc(CN=Nc2nc(O)c(CC(=O)O)s2)ccc1OCc1ccc(Cl)cc1` [2-[2-[2-[[4-[(4-chlorophenyl)methoxy]-3-ethoxy-phenyl]methylidene]hydrazinyl]-4-oxidanylidene-1,3-thiazol-5-yl]ethanoic acid] gave an IC50 of 7.12 µM.

As to `Cc1ccccc1NC(=O)CN1C(=O)/C(=N\NC(=O)c2ccccc2O)c2ccccc21` [2-{3-[(2-Hydroxy-benzoyl)-hydrazono]-2-oxo-2,3-dihydro-indol-1-yl}-N-o-tolyl-acetamide], the IC50 was found to be 1.23 µM.

Regarding `O=C1C=CC(/C=C/c2nc(O)c([N+](=O)[O-])c(=O)[nH]2)C=C1O` (centres undefined) [SMR000524347], the IC50 turned out to be 36.1 µM.

In turn, `O=c1cc(O)[n+]2nc(-c3ccc([N+](=O)[O-])cc3)sc2[n-]1` [SMR000175134] yielded an IC50 of 5.67 µM.

By IC50 is commonly meant the concentration needed to halve the response being measured. Lower therefore signals greater potency in that assay.
